Test results from patent US20210230203A1, “Amphiphilic Kanamycin Compositions and Methods” (priority 2020, published 2021).
≈ marks a conversion by molar mass, not a printed value.

Legend:
Candida glabrata = assay: MIC against yeast, CLSI M27 & M38 (Table 2); conditions: 24-72 hours
[1] = test system: Cryptococcus neoformans H99; assay: MIC against fungal strains (Table 1); assay type: cell-based; conditions: Cryptococcus neoformans H99
Candida parapsilosis = assay: MIC against yeast, CLSI M27 & M38 (Table 2); conditions: Table 2, RPMI 0.165M MOPS, 24-72 hours
Fusarium = assay: MIC against various species, CLSI M27 & M38 (Table 4); assay type: cell-based; conditions: 24-72 hours
Candida albicans 64124 = assay: MIC against fungal strains (Table 1); assay type: cell-based
Candida auris = assay: MIC against yeast, CLSI M27 & M38 (Table 2); conditions: 24-72 hours
Candida albicans MYA2876 = assay: MIC against fungal strains (Table 1); assay type: cell-based; conditions: Candida albicans MYA2876
Rhizopus arrhizus = assay: MIC against filamentous and dimorphic fungi, CLSI M27 & M38 (Table 3); assay type: cell-based; conditions: 24-72 hours
S. aureus (ATCC 25923) = assay: MIC against bacterial strains; assay type: cell-based
P. variotil = assay: MIC against various species, CLSI M27 & M38 (Table 4); assay type: cell-based, Paecilomyces variotii; conditions: P. variotil QC, RPMI 0.165M MOPS, 24-72 hours
Histoplasma capsulatum = assay: microbe, parasite or virus in culture; assay type: cell-based; conditions: Table 3, RPMI 0.165M MOPS, 24-72 hours
Saksenaea sp. = assay: MIC against filamentous and dimorphic fungi, CLSI M27 & M38 (Table 3); assay type: cell-based, Saksenaea species; conditions: 24-72 hours
Scedosporium = assay: MIC against various species, CLSI M27 & M38 (Table 4); conditions: 24-72 hours
P. variatii = assay: MIC against filamentous and dimorphic fungi, CLSI M27 & M38 (Table 3); assay type: cell-based, Paecilomyces variotii; conditions: P. variatii MYA-3630, RPMI 0.165M MOPS, 24-72 hours
C. parapsilosis = assay: MIC against various species, CLSI M27 & M38 (Table 4); conditions: C. parapsilosis QC ATCC 22019; Table 4; RPMI 0.165M MOPS; 24-72 hours
A. furnigatus = assay: as above; conditions: 24-72 hours
[2] = test system: Fusarium graminearum B4-5A; assay: microbe, parasite or virus in culture; assay type: cell-based; conditions: Fusarium graminearum B4-5A
Coccidioldes sp. = assay: microbe, parasite or virus in culture; assay type: cell-based, Coccidioides species; conditions: Table 3, RPMI 0.165M MOPS, 24-72 hours
E. coli (25922) = assay: MIC against bacterial strains; assay type: cell-based
L. prolificans = assay: MIC against various species, CLSI M27 & M38 (Table 4); conditions: L. prolificans LP1; Table 4; RPMI 0.165M MOPS; 24-72 hours
[3] = Candida glabrata CG1, RPMI 0.165M MOPS
[4] = Candida glabrata CG2, RPMI 0.165M MOPS
[5] = Candida glabrata CG3, RPMI 0.165M MOPS
[6] = Candida auris CAU1, RPMI 0.165M MOPS
[7] = Candida auris CAU2, RPMI 0.165M MOPS
[8] = Candida auris CAU3, RPMI 0.165M MOPS
[9] = Candida auris CAU4, RPMI 0.165M MOPS
[10] = Candida auris CAU5, RPMI 0.165M MOPS
[11] = Candida auris CAU6, RPMI 0.165M MOPS
[12] = Candida auris CAU7, RPMI 0.165M MOPS
[13] = Candida auris DI17-46, RPMI 0.165M MOPS
[14] = Candida auris DI17-47, RPMI 0.165M MOPS
[15] = Candida auris DI17-48, RPMI 0.165M MOPS
[16] = Rhizopus arrhizus 99-880, RPMI 0.165M MOPS
[17] = Rhizopus arrhizus 99-892, RPMI 0.165M MOPS
[18] = Rhizopus arrhizus RA1, RPMI 0.165M MOPS
[19] = Saksenaea sp. SK1, RPMI 0.165M MOPS
[20] = Saksenaea sp. SK2, RPMI 0.165M MOPS
[21] = Saksenaea sp. SK3, RPMI 0.165M MOPS
[22] = Scedosporium SA1, RPMI 0.165M MOPS
[23] = Scedosporium SB1, RPMI 0.165M MOPS
[24] = A. furnigatus AF1, RPMI 0.165M MOPS
[25] = A. furnigatus AF2, RPMI 0.165M MOPS
[26] = A. furnigatus AF3, RPMI 0.165M MOPS

SMILES: CCCCCCCCCCCCCCCC(=O)NC[C@H]1O[C@H](O[C@H]2[C@H](O)[C@@H](O[C@H]3O[C@H](CO)[C@@H](O)[C@H](N)[C@H]3O)[C@H](N)C[C@@H]2N)[C@H](O)[C@@H](O)[C@@H]1O [KI06]
- Minimum inhibitory concentration 50% (Candida glabrata; [3]): 4 µg/mL (≈ 5.53 µM)
- Minimum inhibitory concentration 100% (Candida glabrata; [3]): 8 µg/mL (≈ 11.1 µM)
- Minimum inhibitory concentration 50% (Candida glabrata; [4]): 4 µg/mL (≈ 5.53 µM)
- Minimum inhibitory concentration 100% (Candida glabrata; [4]): 4 µg/mL (≈ 5.53 µM)
- Minimum inhibitory concentration 50% (Candida glabrata; [5]): 4 µg/mL (≈ 5.53 µM)
- Minimum inhibitory concentration 100% (Candida glabrata; [5]): 4 µg/mL (≈ 5.53 µM)
- Minimum inhibitory concentration [1]: 4 µg/mL (≈ 5.53 µM)
- Minimum inhibitory concentration 50% (Candida parapsilosis; C. parapsilosis ATCC 22019): 4 µg/mL (≈ 5.53 µM)
- Minimum inhibitory concentration 100% (Candida parapsilosis; C. parapsilosis ATCC 22019): 8 µg/mL (≈ 11.1 µM)
- Minimum inhibitory concentration 50% (Candida parapsilosis; Candida parapsilosis CP1): 4 µg/mL (≈ 5.53 µM)
- Minimum inhibitory concentration 100% (Candida parapsilosis; Candida parapsilosis CP1): 8 µg/mL (≈ 11.1 µM)
- Minimum inhibitory concentration 50% (Candida parapsilosis; Candida parapsilosis CP2): 4 µg/mL (≈ 5.53 µM)
- Minimum inhibitory concentration 100% (Candida parapsilosis; Candida parapsilosis CP2): 8 µg/mL (≈ 11.1 µM)
- Minimum inhibitory concentration 50% (Candida parapsilosis; Candida parapsilosis CP3): 8 µg/mL (≈ 11.1 µM)
- Minimum inhibitory concentration 100% (Candida parapsilosis; Candida parapsilosis CP3): 16 µg/mL (≈ 22.1 µM)
- Minimum inhibitory concentration 50% (Fusarium; Fusarium FO1, RPMI 0.165M MOPS): 8 µg/mL (≈ 11.1 µM)
- Minimum inhibitory concentration 100% (Fusarium; Fusarium FO1, RPMI 0.165M MOPS): 8 µg/mL (≈ 11.1 µM)
- Minimum inhibitory concentration 50% (Fusarium; Fusarium FO2, RPMI 0.165M MOPS): 4 µg/mL (≈ 5.53 µM)
- Minimum inhibitory concentration 100% (Fusarium; Fusarium FO2, RPMI 0.165M MOPS): 8 µg/mL (≈ 11.1 µM)
- Minimum inhibitory concentration 50% (Fusarium; Fusarium FS1, RPMI 0.165M MOPS): 4 µg/mL (≈ 5.53 µM)
- Minimum inhibitory concentration 100% (Fusarium; Fusarium FS1, RPMI 0.165M MOPS): 8 µg/mL (≈ 11.1 µM)
- Minimum inhibitory concentration (Candida albicans 64124): 8 µg/mL (≈ 11.1 µM)
- Minimum inhibitory concentration 50% (Candida auris; [6]): 4 µg/mL (≈ 5.53 µM)
- Minimum inhibitory concentration 100% (Candida auris; [6]): 8 µg/mL (≈ 11.1 µM)
- Minimum inhibitory concentration 50% (Candida auris; [7]): 4 µg/mL (≈ 5.53 µM)
- Minimum inhibitory concentration 100% (Candida auris; [7]): 8 µg/mL (≈ 11.1 µM)
- Minimum inhibitory concentration 50% (Candida auris; [8]): 4 µg/mL (≈ 5.53 µM)
- Minimum inhibitory concentration 100% (Candida auris; [8]): 8 µg/mL (≈ 11.1 µM)
- Minimum inhibitory concentration 50% (Candida auris; [9]): 8 µg/mL (≈ 11.1 µM)
- Minimum inhibitory concentration 100% (Candida auris; [9]): 8 µg/mL (≈ 11.1 µM)
- Minimum inhibitory concentration 50% (Candida auris; [10]): 8 µg/mL (≈ 11.1 µM)
- Minimum inhibitory concentration 100% (Candida auris; [10]): 8 µg/mL (≈ 11.1 µM)
- Minimum inhibitory concentration 50% (Candida auris; [11]): 4 µg/mL (≈ 5.53 µM)
- Minimum inhibitory concentration 100% (Candida auris; [11]): 8 µg/mL (≈ 11.1 µM)
- Minimum inhibitory concentration 50% (Candida auris; [12]): 4 µg/mL (≈ 5.53 µM)
- Minimum inhibitory concentration 100% (Candida auris; [12]): 8 µg/mL (≈ 11.1 µM)
- Minimum inhibitory concentration 50% (Candida auris; [13]): 8 µg/mL (≈ 11.1 µM)
- Minimum inhibitory concentration 100% (Candida auris; [13]): 8 µg/mL (≈ 11.1 µM)
- Minimum inhibitory concentration 50% (Candida auris; [14]): 8 µg/mL (≈ 11.1 µM)
- Minimum inhibitory concentration 100% (Candida auris; [14]): 8 µg/mL (≈ 11.1 µM)
- Minimum inhibitory concentration 50% (Candida auris; [15]): 4 µg/mL (≈ 5.53 µM)
- Minimum inhibitory concentration 100% (Candida auris; [15]): 8 µg/mL (≈ 11.1 µM)
- Minimum inhibitory concentration (Candida albicans MYA2876): 8 µg/mL (≈ 11.1 µM)
- Minimum inhibitory concentration 50% (Rhizopus arrhizus; [16]): 2 µg/mL (≈ 2.77 µM)
- Minimum inhibitory concentration 100% (Rhizopus arrhizus; [16]): 4 µg/mL (≈ 5.53 µM)
- Minimum inhibitory concentration 50% (Rhizopus arrhizus; [17]): 2 µg/mL (≈ 2.77 µM)
- Minimum inhibitory concentration 100% (Rhizopus arrhizus; [17]): 4 µg/mL (≈ 5.53 µM)
- Minimum inhibitory concentration 50% (Rhizopus arrhizus; [18]): 2 µg/mL (≈ 2.77 µM)
- Minimum inhibitory concentration 100% (Rhizopus arrhizus; [18]): 4 µg/mL (≈ 5.53 µM)
- Minimum inhibitory concentration (S. aureus (ATCC 25923)): 16 µg/mL (≈ 22.1 µM)
- Minimum inhibitory concentration 50% (P. variotil): 8 µg/mL (≈ 11.1 µM)
- Minimum inhibitory concentration 100% (P. variotil): 8 µg/mL (≈ 11.1 µM)
- Minimum inhibitory concentration 50% (Histoplasma capsulatum; Histoplasma capsulatum HC1): 2 µg/mL (≈ 2.77 µM)
- Minimum inhibitory concentration 100% (Histoplasma capsulatum; Histoplasma capsulatum HC1): 4 µg/mL (≈ 5.53 µM)
- Minimum inhibitory concentration 50% (Histoplasma capsulatum; Histoplasma capsulatum HC2): 4 µg/mL (≈ 5.53 µM)
- Minimum inhibitory concentration 100% (Histoplasma capsulatum; Histoplasma capsulatum HC2): 8 µg/mL (≈ 11.1 µM)
- Minimum inhibitory concentration 50% (Histoplasma capsulatum; Histoplasma capsulatum HC3): 2 µg/mL (≈ 2.77 µM)
- Minimum inhibitory concentration 100% (Histoplasma capsulatum; Histoplasma capsulatum HC3): 4 µg/mL (≈ 5.53 µM)
- Minimum inhibitory concentration 50% (Saksenaea sp.; [19]): 1 µg/mL (≈ 1.38 µM)
- Minimum inhibitory concentration 100% (Saksenaea sp.; [19]): 1 µg/mL (≈ 1.38 µM)
- Minimum inhibitory concentration 50% (Saksenaea sp.; [20]): 1 µg/mL (≈ 1.38 µM)
- Minimum inhibitory concentration 100% (Saksenaea sp.; [20]): 2 µg/mL (≈ 2.77 µM)
- Minimum inhibitory concentration 50% (Saksenaea sp.; [21]): 1 µg/mL (≈ 1.38 µM)
- Minimum inhibitory concentration 100% (Saksenaea sp.; [21]): 2 µg/mL (≈ 2.77 µM)
- Minimum inhibitory concentration 50% (Scedosporium; [22]): 2 µg/mL (≈ 2.77 µM)
- Minimum inhibitory concentration 100% (Scedosporium; [22]): 4 µg/mL (≈ 5.53 µM)
- Minimum inhibitory concentration 50% (Scedosporium; [23]): 1 µg/mL (≈ 1.38 µM)
- Minimum inhibitory concentration 100% (Scedosporium; [23]): 8 µg/mL (≈ 11.1 µM)
- Minimum inhibitory concentration 50% (P. variatii): 8 µg/mL (≈ 11.1 µM)
- Minimum inhibitory concentration 100% (P. variatii): 16 µg/mL (≈ 22.1 µM)
- Minimum inhibitory concentration 50% (C. parapsilosis): 4 µg/mL (≈ 5.53 µM)
- Minimum inhibitory concentration 100% (C. parapsilosis): 8 µg/mL (≈ 11.1 µM)
- Minimum inhibitory concentration 50% (A. furnigatus; [24]): 8 µg/mL (≈ 11.1 µM)
- Minimum inhibitory concentration 100% (A. furnigatus; [24]): 8 µg/mL (≈ 11.1 µM)
- Minimum inhibitory concentration 50% (A. furnigatus; [25]): 32 µg/mL (≈ 44.3 µM)
- Minimum inhibitory concentration 100% (A. furnigatus; [25]): 32 µg/mL (≈ 44.3 µM)
- Minimum inhibitory concentration 50% (A. furnigatus; [26]): 8 µg/mL (≈ 11.1 µM)
- Minimum inhibitory concentration 100% (A. furnigatus; [26]): 16 µg/mL (≈ 22.1 µM)
- Minimum inhibitory concentration [2]: 4 µg/mL (≈ 5.53 µM)
- Minimum inhibitory concentration 50% (Coccidioldes sp.; Coccidioldes sp. Cocci1): 4 µg/mL (≈ 5.53 µM)
- Minimum inhibitory concentration 100% (Coccidioldes sp.; Coccidioldes sp. Cocci1): 8 µg/mL (≈ 11.1 µM)
- Minimum inhibitory concentration 50% (Coccidioldes sp.; Coccidioldes sp. Cocci2): 4 µg/mL (≈ 5.53 µM)
- Minimum inhibitory concentration 100% (Coccidioldes sp.; Coccidioldes sp. Cocci2): 8 µg/mL (≈ 11.1 µM)
- Minimum inhibitory concentration 50% (Coccidioldes sp.; Coccidioldes sp. DI17-143): 4 µg/mL (≈ 5.53 µM)
- Minimum inhibitory concentration 100% (Coccidioldes sp.; Coccidioldes sp. DI17-143): 8 µg/mL (≈ 11.1 µM)
- Minimum inhibitory concentration (E. coli (25922)): 32 µg/mL (≈ 44.3 µM)
- Minimum inhibitory concentration 50% (L. prolificans): 2 µg/mL (≈ 2.77 µM)
- Minimum inhibitory concentration 100% (L. prolificans): 2 µg/mL (≈ 2.77 µM)
